Assay results taken from patent publication US20250059231A1, “Protease inhibitors” (priority 2021, published 2025).
Where a SMILES comes first, the peptide text is derived from it. [ ]: non-standard residue; d: D form. The star is where a group is joined. Palmitoyl = CCCCCCCCCCCCCCCC(=O)*

What follows are compounds tested on West Nile virus (assay: not given). Details: not given.

SMILES	EC50 [µM]
CCCCCCCCCCCCCCCC(=O)N[C@@H](CCCCC(=N)N)C(=O)N[C@@H](Cc1c[nH]cn1)C(N)=O [compound 170]	≤ 25
CCCCCCCCCCCCCCCC(=O)N[C@@H](CCCCN)C(=O)N[C@@H](C)C(=O)N[C@@H](C)C(=O)N[C@@H](CCCCN)C(=O)O [compound 189] (Palmitoyl-KAAK-OH)	≤ 25
CCCCCCCCCCCCCCCC(=O)N[C@H](CCCCN)C(=O)N1CCC[C@H]1C(=O)N[C@@H](C)C(=O)N[C@@H](Cc1c[nH]c2ccccc12)C(N)=O [compound 196] (Palmitoyl-[dK]PAW-NH2)	≤ 25

What follows are compounds tested on ZIKV (assay: not given). Details: not given.

SMILES	EC50 [µM]
CCCCCCCCCCCCCCCC(=O)N[C@@H](CCCNC(=N)N)C(=O)N[C@@H](CCC(N)=O)C(=O)N[C@H](Cc1ccccc1)C(N)=O [compound 49] (Palmitoyl-Arg-Gln-[dF]-NH2)	≤ 10
CCCCCCCCCCCCCCCC(=O)N[C@@H](CCCCC(=N)N)C(=O)N[C@@H](Cc1c[nH]cn1)C(N)=O [compound 170]	≤ 10
CCCCCCCCCCCCCCCC(=O)N[C@@H](CCCCN)C(=O)N[C@@H](C)C(=O)N[C@@H](C)C(=O)N[C@@H](CCCCN)C(=O)O [compound 189] (Palmitoyl-KAAK-OH)	≤ 10
CCCCCCCCCCCCCCCC(=O)N[C@H](CCCCN)C(=O)N1CCC[C@H]1C(=O)N[C@@H](C)C(=O)N[C@@H](Cc1c[nH]c2ccccc12)C(N)=O [compound 196] (Palmitoyl-[dK]PAW-NH2)	≤ 10

What follows are compounds tested against T1, DENV protease (Dengue virus type 2, UniProt P29990) (assay: biochemical). Details: at 1 μM; read-out: inhibition of DENV.
T1 construct: The virus-encoded dengue protease comprises the amino-terminal 180 amino acids of NS3 (NS3pro) of the polyprotein
In short: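 DENV protease (100 nM) was pre-incubated 15 min with inhibitors in 50 mM Tris-HCl pH 9.0, 10% ethylene glycol, 0.0016% Brij 58. FRET substrate (50 μM final) started the reaction, monitored 15 min as RFU/s slope. IC50 came from triplicate means versus concentration.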

T1 sequence (P29990 1398-1437): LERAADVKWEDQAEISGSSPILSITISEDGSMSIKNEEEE
T1 sequence (P29990 1476-1653): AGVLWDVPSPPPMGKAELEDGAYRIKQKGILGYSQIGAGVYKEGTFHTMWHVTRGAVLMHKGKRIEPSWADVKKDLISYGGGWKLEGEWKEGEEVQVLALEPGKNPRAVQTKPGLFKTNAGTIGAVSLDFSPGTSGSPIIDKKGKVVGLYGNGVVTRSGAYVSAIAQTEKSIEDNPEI

SMILES	inhibition at 1 µM [%]
CCCCCCCCCCCCCCCC(=O)N[C@@H](CCCNC(=N)N)C(=O)N[C@@H](CCC(N)=O)C(=O)N[C@H](Cc1ccccc1)C(N)=O [compound 49] (Palmitoyl-Arg-Gln-[dF]-NH2)	≥ 20

Same assay, conditions: at 50 μM; read-out: inhibition of DENV

SMILES	inhibition at 50 µM [%]
CCCCCCCCCCCCCCCC(=O)N[C@@H](CCCNC(=N)N)C(=O)N[C@@H](CCC(N)=O)C(=O)N[C@H](Cc1ccccc1)C(N)=O [compound 49] (Palmitoyl-Arg-Gln-[dF]-NH2)	≥ 25
CCCCCCCCCCCCCCCC(=O)N[C@@H](CCCCC(=N)N)C(=O)N[C@@H](Cc1c[nH]cn1)C(N)=O [compound 170]	≥ 25
CCCCCCCCCCCCCCCC(=O)N[C@@H](CCCCN)C(=O)N[C@@H](C)C(=O)N[C@@H](C)C(=O)N[C@@H](CCCCN)C(=O)O [compound 189] (Palmitoyl-KAAK-OH)	≥ 25
CCCCCCCCCCCCCCCC(=O)N[C@H](CCCCN)C(=O)N1CCC[C@H]1C(=O)N[C@@H](C)C(=O)N[C@@H](Cc1c[nH]c2ccccc12)C(N)=O [compound 196] (Palmitoyl-[dK]PAW-NH2)	≥ 25

The compounds below were run against human Trypsin (Homo sapiens, UniProt P07477) (assay: Selectivity screening, human serine protease trypsin). Details: at 5 μM; read-out: inhibition of human Trypsin.
Format: biochemical
Protocol: (§1) By catalytic activity of the protease, the cleaved substrate results in increased fluorescence that can be monitored using a BMG Labtech Fluostar OPTIMA Microtiter fluorescence plate reader (excitation wavelength of 320 nm and a monitored emission wavelength of 405 nm). Dilutions were made starting from 10 mM stock solutions in DMSO and final concentrations were measured in triplicates. The inhibitors were preincubated for 15 min with DENV protease (100 nM) in the assay buffer (50 mM Tris-HCl pH 9.0, ethylene glycol (10% v/v), and 0.0016% Brij 58). The enzymatic reaction was initiated by the addition of the FRET substrate (final concentration 50 μM) to obtain a final assay volume of 100 μL per well. The enzymatic activity was monitored for 15 min and determined as a slope of relative fluorescence units per second (RFU/s) for each concentration. The mean of the triplicates were plotted against the corresponding concentration in CDDVault to determine the IC50-values. Analogous procedures were used to determine the inhibitory potency on WNV (Kühl et al., J. Med. Chem. 2020, 63 (15): 8179-8197) and ZIKA protease (Nitsche et al., ACS Med. Chem. Lett. 2019 Feb. 14; 10 (2): 168-174). For selectivity screening of active candidates, similar biochemical assays with human serine proteases trypsin (Weigel et al., J. Med. Chem. 2015, 58 (19), 7719-7733.) and/or thrombin (Nitsche et al., J. Med. Chem. 2013, 56 (21), 8389-8403) were used.

SMILES	inhibition at 5 µM [%]
CCCCCCCCCCCCCCCC(=O)N[C@@H](CCCCC(=N)N)C(=O)N[C@@H](Cc1c[nH]cn1)C(N)=O [compound 170]	< 10
CCCCCCCCCCCCCCCC(=O)N[C@@H](CCCCN)C(=O)N[C@@H](C)C(=O)N[C@@H](C)C(=O)N[C@@H](CCCCN)C(=O)O [compound 189] (Palmitoyl-KAAK-OH)	< 10
CCCCCCCCCCCCCCCC(=O)N[C@H](CCCCN)C(=O)N1CCC[C@H]1C(=O)N[C@@H](C)C(=O)N[C@@H](Cc1c[nH]c2ccccc12)C(N)=O [compound 196] (Palmitoyl-[dK]PAW-NH2)	< 10

Same assay, conditions: at 25 μM; read-out: inhibition of human Trypsin

SMILES	inhibition at 25 µM [%]
CCCCCCCCCCCCCCCC(=O)N[C@@H](CCCCC(=N)N)C(=O)N[C@@H](Cc1c[nH]cn1)C(N)=O [compound 170]	< 20
CCCCCCCCCCCCCCCC(=O)N[C@@H](CCCCN)C(=O)N[C@@H](C)C(=O)N[C@@H](C)C(=O)N[C@@H](CCCCN)C(=O)O [compound 189] (Palmitoyl-KAAK-OH)	< 20
CCCCCCCCCCCCCCCC(=O)N[C@H](CCCCN)C(=O)N1CCC[C@H]1C(=O)N[C@@H](C)C(=O)N[C@@H](Cc1c[nH]c2ccccc12)C(N)=O [compound 196] (Palmitoyl-[dK]PAW-NH2)	< 20

The compounds below were run against T2, ZIKA protease (Zika virus, UniProt Q32ZE1) (assay: biochemical). Details: not given.
T2 construct: a trypsin-like serine protease domain in the N-terminal region of the flaviviral NS3 proteins
Protocol: as §1

T2 sequence (Q32ZE1 1499-1676): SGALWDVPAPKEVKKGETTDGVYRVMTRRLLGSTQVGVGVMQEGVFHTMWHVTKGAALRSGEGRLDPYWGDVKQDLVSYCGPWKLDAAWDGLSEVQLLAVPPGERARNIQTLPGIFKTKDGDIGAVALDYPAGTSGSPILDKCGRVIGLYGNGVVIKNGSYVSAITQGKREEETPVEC
T2 sequence (Q32ZE1 1421-1460): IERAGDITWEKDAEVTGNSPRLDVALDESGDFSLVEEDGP

SMILES	IC50 [µM]
CCCCCCCCCCCCCCCC(=O)N[C@@H](CCCNC(=N)N)C(=O)N[C@@H](CCC(N)=O)C(=O)N[C@H](Cc1ccccc1)C(N)=O [compound 49] (Palmitoyl-Arg-Gln-[dF]-NH2)	≤ 25
CCCCCCCCCCCCCCCC(=O)N[C@@H](CCCCC(=N)N)C(=O)N[C@@H](Cc1c[nH]cn1)C(N)=O [compound 170]	≤ 25
CCCCCCCCCCCCCCCC(=O)N[C@@H](CCCCN)C(=O)N[C@@H](C)C(=O)N[C@@H](C)C(=O)N[C@@H](CCCCN)C(=O)O [compound 189] (Palmitoyl-KAAK-OH)	≤ 25
CCCCCCCCCCCCCCCC(=O)N[C@H](CCCCN)C(=O)N1CCC[C@H]1C(=O)N[C@@H](C)C(=O)N[C@@H](Cc1c[nH]c2ccccc12)C(N)=O [compound 196] (Palmitoyl-[dK]PAW-NH2)	≤ 25

Same assay, conditions: at 1 μM; read-out: inhibition of ZIKV

SMILES	inhibition at 1 µM [%]
CCCCCCCCCCCCCCCC(=O)N[C@@H](CCCNC(=N)N)C(=O)N[C@@H](CCC(N)=O)C(=O)N[C@H](Cc1ccccc1)C(N)=O [compound 49] (Palmitoyl-Arg-Gln-[dF]-NH2)	≥ 10
CCCCCCCCCCCCCCCC(=O)N[C@@H](CCCCN)C(=O)N[C@@H](C)C(=O)N[C@@H](C)C(=O)N[C@@H](CCCCN)C(=O)O [compound 189] (Palmitoyl-KAAK-OH)	≥ 10

Same assay, conditions: at 50 μM; read-out: inhibition of ZIKV

SMILES	inhibition at 50 µM [%]
CCCCCCCCCCCCCCCC(=O)N[C@@H](CCCNC(=N)N)C(=O)N[C@@H](CCC(N)=O)C(=O)N[C@H](Cc1ccccc1)C(N)=O [compound 49] (Palmitoyl-Arg-Gln-[dF]-NH2)	≥ 65
CCCCCCCCCCCCCCCC(=O)N[C@@H](CCCCC(=N)N)C(=O)N[C@@H](Cc1c[nH]cn1)C(N)=O [compound 170]	≥ 65
CCCCCCCCCCCCCCCC(=O)N[C@@H](CCCCN)C(=O)N[C@@H](C)C(=O)N[C@@H](C)C(=O)N[C@@H](CCCCN)C(=O)O [compound 189] (Palmitoyl-KAAK-OH)	≥ 65
CCCCCCCCCCCCCCCC(=O)N[C@H](CCCCN)C(=O)N1CCC[C@H]1C(=O)N[C@@H](C)C(=O)N[C@@H](Cc1c[nH]c2ccccc12)C(N)=O [compound 196] (Palmitoyl-[dK]PAW-NH2)	≥ 65

The compounds below were run against T3, WNV protease (West Nile virus, UniProt P06935) (assay: WNV protease assay (analogous procedure)). Details: at 50 μM.
T3 construct: a trypsin-like serine protease domain in the N-terminal region of the flaviviral NS3 proteins
Format: biochemical
Protocol: as §1

T3 sequence (P06935 1424-1463): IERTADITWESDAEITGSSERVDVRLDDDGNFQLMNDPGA
T3 sequence (P06935 1502-1679): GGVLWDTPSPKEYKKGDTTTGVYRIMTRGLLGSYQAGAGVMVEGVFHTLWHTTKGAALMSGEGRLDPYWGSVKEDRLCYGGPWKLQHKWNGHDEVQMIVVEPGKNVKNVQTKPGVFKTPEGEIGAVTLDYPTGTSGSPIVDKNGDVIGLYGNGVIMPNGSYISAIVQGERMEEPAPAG

SMILES	inhibition at 50 µM [%]
CCCCCCCCCCCCCCCC(=O)N[C@@H](CCCCC(=N)N)C(=O)N[C@@H](Cc1c[nH]cn1)C(N)=O [compound 170]	≥ 25
CCCCCCCCCCCCCCCC(=O)N[C@H](CCCCN)C(=O)N1CCC[C@H]1C(=O)N[C@@H](C)C(=O)N[C@@H](Cc1c[nH]c2ccccc12)C(N)=O [compound 196] (Palmitoyl-[dK]PAW-NH2)	≥ 25

These compounds were tested against human Thrombin (Homo sapiens, UniProt P00734) (assay: Selectivity screening, human serine protease thrombin). Details: at 5 μM; read-out: inhibition of human Thrombin.
Format: biochemical
Protocol: as §1

SMILES	inhibition at 5 µM [%]
CCCCCCCCCCCCCCCC(=O)N[C@@H](CCCCC(=N)N)C(=O)N[C@@H](Cc1c[nH]cn1)C(N)=O [compound 170]	< 5
CCCCCCCCCCCCCCCC(=O)N[C@@H](CCCCN)C(=O)N[C@@H](C)C(=O)N[C@@H](C)C(=O)N[C@@H](CCCCN)C(=O)O [compound 189] (Palmitoyl-KAAK-OH)	< 5
CCCCCCCCCCCCCCCC(=O)N[C@H](CCCCN)C(=O)N1CCC[C@H]1C(=O)N[C@@H](C)C(=O)N[C@@H](Cc1c[nH]c2ccccc12)C(N)=O [compound 196] (Palmitoyl-[dK]PAW-NH2)	< 5

What follows are compounds tested against T3, WNV protease (assay: WNV protease assay (analogous procedure)). Details: read-out: IC50 for WNNV.
Format: biochemical

SMILES	IC50 [µM]
CCCCCCCCCCCCCCCC(=O)N[C@@H](CCCCC(=N)N)C(=O)N[C@@H](Cc1c[nH]cn1)C(N)=O [compound 170]	≤ 40
CCCCCCCCCCCCCCCC(=O)N[C@@H](CCCCN)C(=O)N[C@@H](C)C(=O)N[C@@H](C)C(=O)N[C@@H](CCCCN)C(=O)O [compound 189] (Palmitoyl-KAAK-OH)	≤ 40
CCCCCCCCCCCCCCCC(=O)N[C@H](CCCCN)C(=O)N1CCC[C@H]1C(=O)N[C@@H](C)C(=O)N[C@@H](Cc1c[nH]c2ccccc12)C(N)=O [compound 196] (Palmitoyl-[dK]PAW-NH2)	≤ 40
